Each structure is given as a SMILES string. ≈ marks a conversion by molar mass, not a printed value. Where two headings read alike, the source gives them in different places.

Data set [1] deals with Mtb H37Ra ITM-M006710 (ATCC 9431). Description: Microplate Alamar Blue Assay (MABA) microdilution, Mtb H37Ra. The note with it: Mycobacterium tuberculosis. The class given is cell-based, Mycobacterium tuberculosis.
The test system of data set [2] is M. smegmatis DSM 43465 (ATCC 607). Description: Microplate Alamar Blue Assay (MABA) microdilution, M. smegmatis. The class given is cell-based, Mycobacterium smegmatis. The note with it: Mycolicibacterium smegmatis.
Data set [3] has as its system Mycobacterium aurum DSM 43999 (ATCC 23366). Briefly: Microplate Alamar Blue Assay (MABA) microdilution, M. aurum. The class given is cell-based. The note with it: Mycolicibacterium aurum. For orientation: Resazurin is reduced to fluorescent resorufin, in cell work by metabolically active cells.
Data set [4] deals with Staphylococcus epidermidis CCM 4418 (ATCC 12228). Briefly: Antibacterial microdilution broth method, SE. The class given is cell-based. The note with it: 24 h, read-out: MIC SE. A general note: Broth dilution looks for growth in wells or tubes with falling amounts of substance.
Data set [5] relates to Candida albicans CCM 8320 (ATCC 24433). Briefly: Antifungal microdilution broth method, CA. The class given is cell-based. The note with it: 24 h, read-out: MIC CA.
For data set [6], the system named is Candida krusei CCM 8271 (ATCC 6258). Description: Antifungal microdilution broth method, CK. The class given is cell-based. The note with it: Pichia kudriavzevii, 24 h, read-out: MIC CK.
Data set [7] concerns Candida parapsilosis CCM 8260 (ATCC 22019). Description: Antifungal microdilution broth method, CP. The note with it: Lodderomyces parapsilosis, 24 h, read-out: MIC CP. The class given is cell-based.
Data set [8] concerns Candida tropicalis CCM 8264 (ATCC 750). Description: Antifungal microdilution broth method, CT. The class given is cell-based. The note with it: 24 h, read-out: MIC CT.
The subject of data set [9] is Aspergillus fumigatus ATCC 204305. Briefly: Antifungal microdilution broth method, AF. The class given is cell-based. The note with it: ATCC204305, 48 h, read-out: MIC AF.
The test system of data set [10] is Aspergillus flavus CCM 8363. Briefly: Antifungal microdilution broth method, AFla. The note with it: CCM8363, read after 48 h (filamentous fungi), read-out: MIC AFla. The class given is cell-based. As to the method: 6. In vitro antifungal activity screening
Antifungal activity evaluation was performed using a microdilution broth method according to EUCAST instructions (The European Committee on Antimicrobial Susceptibility Testing) with slight modifications. Eight fungal strains (four yeast and four mould strains) were used for antifungal […]
and Trichophyton interdigitale CCM 8377 (ATCC 9533). Tested strains were purchased from the Czech Collection of Microorganisms (CCM, Brno, Czech Republic) or from the American Type Collection Cultures (ATCC, Manassas, VA, USA). Tested compounds were dissolved in DMSO and diluted in a twofold manner with RPMI 1640 medium, with glutamine and 2% glucose, buffered to pH 7.0 with MOPS (3-morpholinopropane-1-sulfonic acid). The final concentration of DMSO in the testing […]
Static incubation was performed in the dark and in humid atmosphere, at 35±2 °C, for 24 and 48 h (72 and 120 h for Trichophyton interdigitale respectively). Positive controls consisted of test microbe solely, while negative controls consisted of cultivation medium and DMSO. Visual inspection and metabolic activity indicator, Alamar Blue (ThermoFisher Scientific), were used for MIC endpoint evaluation. The internal quality standards, amphotericin B (Sigma-Aldrich) and voriconazole (Toronto research Chemicals, CA) were involved in assays (for MIC of standards see Table S5). All experiments were conducted in duplicates.
For the results to be valid, the difference in MIC for one compound determined from two parallel measurements must not be greater than one step on the dilution scale.

Data set [11] has as its system Lichtheimia corymbifera CCM 8077. Description: Antifungal microdilution broth method, LC. The note with it: CCM8077, 48 h, read-out: MIC LC. The class given is cell-based.
Data set [12] concerns Trichophyton interdigitale CCM 8377 (ATCC 9533). Briefly: Antifungal microdilution broth method, TI. The class given is cell-based. The note with it: 48 h, read-out: MIC TI.
In data set [13] the test system is Klebsiella pneumoniae CCM 4415 (ATCC 10031). Description: Antibacterial microdilution broth method, KP. The note with it: read after 24 h of incubation.
Where [14] appears, read: pH 6.6, read-out: MIC Mtb H37Ra.
[15] abbreviates: pH 6, calculated from µg/mL, read-out: MIC Mtb H37Ra.
Setting [16] is: pH 6, read-out: MIC M. smegmatis µg/mL.
The mark [17] stands for this setting: pH 6.6, read-out: MIC M. smegmatis.
Where [18] appears, read: pH 6, read-out: MIC M. aurum µg/mL.

In the case of `COC(=O)[C@@H](NC(=O)c1cnccn1)[C@@H](C)O` [PC-L-Thr-Me, methyl (pyrazine-2-carbonyl)-L-threoninate], the MIC is at least 500 µg/mL in data set [1] (pH 6); at least 500 µg/mL in data set [1] (pH 6, read-out: MIC Mtb H37Ra); at least 500 µg/mL in data set [1] (setting [14]); at least 2090 µM in data set [1] (setting [15]); at least 500 µg/mL in data set [2] (setting [16]); at least 500 µg/mL in data set [2] (setting [17]). Further, the MIC in data set [3] (setting [18]) is at least 500 µg/mL; in [3] (pH 6.6, read-out: MIC M. aurum), at least 500 µg/mL; in data set [4], over 500 µM; in [5], over 500 µM; in data set [6] it was over 500 µM; in data set [7] it was over 500 µM. For the same compound, the MIC in data set [8] is over 500 µM; in [9], over 500 µM; in data set [10], over 500 µM; in data set [11] it was over 500 µM; in [12], 500 µM (≈ 120 µg/mL). For the same compound, the “MIC KP” value in data set [13] was over 500 µM.
Take `COC(=O)[C@H](C)NC(=O)c1cnccn1` (racemic) [PC-DL-Ala-Me, methyl (pyrazine-2-carbonyl)alaninate]: the MIC is at least 125 µg/mL in data set [1] (pH 6); at least 125 µg/mL in [1] (pH 6, read-out: MIC Mtb H37Ra); at least 500 µg/mL in data set [1] (setting [14]); at least 598 µM in data set [1] (setting [15]); at least 125 µg/mL in data set [2] (setting [16]); at least 500 µg/mL in data set [2] (setting [17]). The MIC in data set [3] (setting [18]) is at least 125 µg/mL; in data set [3] (pH 6.6, read-out: MIC M. aurum), at least 500 µg/mL; in [4], over 500 µM; in data set [5], over 500 µM; in data set [6] it was 250 µM (≈ 52.3 µg/mL); in [7], over 500 µM. The MIC in data set [8], in [9], in data set [10], in data set [11] and in [12] was over 500 µM in each case. In addition, in data set [13], the “MIC KP” value is on record as over 500 µM.
For the compound `CCOC(=O)C[C@H](NC(=O)c1cnccn1)C(=O)OCC` [PC-L-Asp-diEt, diethyl (pyrazine-2-carbonyl)-L-aspartate], the MIC in data set [1] (pH 6) was at least 125 µg/mL; in data set [1] (pH 6, read-out: MIC Mtb H37Ra) it was at least 125 µg/mL; in [1] (setting [14]) it was at least 500 µg/mL; in data set [1] (setting [15]), at least 423 µM; in data set [2] (setting [16]) it was at least 125 µg/mL; in data set [2] (setting [17]), at least 500 µg/mL. Besides, the MIC in [3] (setting [18]) is at least 125 µg/mL; in data set [3] (pH 6.6, read-out: MIC M. aurum), at least 500 µg/mL; in data set [4], 500 µM (≈ 148 µg/mL); in data set [5] it was over 500 µM; in data set [6] it was over 500 µM; in data set [7], over 500 µM. In addition, the MIC in [8], in data set [9], in data set [10], in [11] and in data set [12] was over 500 µM each time. The “MIC KP” value in data set [13] is recorded as over 500 µM.
`CCOC(=O)[C@@H](Cc1c[nH]c2ccccc12)NC(=O)c1cnccn1` [PC-D-Trp-Et, ethyl (pyrazine-2-carbonyl)-D-tryptophanate]: the MIC is 62.5 µg/mL in [1] (pH 6); 62.5 µg/mL in data set [1] (pH 6, read-out: MIC Mtb H37Ra); 125 µg/mL in data set [1] (setting [14]); 185 µM in [1] (setting [15]); 250 µg/mL (≈ 739 µM) in [2] (setting [16]); 250 µg/mL (≈ 739 µM) in data set [2] (setting [17]). In addition, the MIC in data set [3] (setting [18]) was 62.5 µg/mL (≈ 185 µM); in [3] (pH 6.6, read-out: MIC M. aurum) it was 250 µg/mL (≈ 739 µM); in [4] it was over 500 µM; in data set [5], over 500 µM; in data set [6], over 500 µM; in data set [7], over 500 µM. Moreover, the MIC in data set [8], in [9], in data set [10], in data set [11] and in data set [12] was over 500 µM in each case. Further, the “MIC KP” value in [13] was over 500 µM.
As for `COC(=O)[C@@H](NC(=O)c1cnccn1)C(C)C` [PC-L-Val-Me, methyl (pyrazine-2-carbonyl)-L-valinate], the MIC is at least 125 µg/mL in data set [1] (pH 6); at least 125 µg/mL in [1] (pH 6, read-out: MIC Mtb H37Ra); at least 500 µg/mL in data set [1] (setting [14]); at least 527 µM in data set [1] (setting [15]); at least 125 µg/mL in data set [2] (setting [16]); 250 µg/mL (≈ 1050 µM) in [2] (setting [17]). In addition, the MIC is at least 125 µg/mL in data set [3] (setting [18]); at least 500 µg/mL in [3] (pH 6.6, read-out: MIC M. aurum); over 500 µM in data set [4]; over 500 µM in data set [5]; over 500 µM in data set [6]; over 500 µM in data set [7]. The MIC in [8], in [9], in [10], in [11] and in data set [12] was over 500 µM in each case. In data set [13], the “MIC KP” value is over 500 µM.
In the case of `COC(=O)[C@@H](COC(C)(C)C)NC(=O)c1cnccn1` [PC-D-OtBu-Ser-Me, methyl O-(tert-butyl)-N-(pyrazine-2-carbonyl)-D-serinate], the MIC in [1] (pH 6) is at least 500 µg/mL; in data set [1] (pH 6, read-out: MIC Mtb H37Ra), at least 500 µg/mL; in data set [1] (setting [14]), at least 500 µg/mL; in data set [1] (setting [15]) it was at least 1780 µM; in data set [2] (setting [16]), at least 500 µg/mL; in [2] (setting [17]) it was at least 500 µg/mL. Besides, the MIC in data set [3] (setting [18]) is at least 500 µg/mL; in data set [3] (pH 6.6, read-out: MIC M. aurum), at least 500 µg/mL; in [4], over 500 µM; in data set [5] it was over 500 µM; in [6], over 500 µM; in [7], over 500 µM. In addition, the MIC in [8], in [9], in [10], in data set [11] and in [12] was over 500 µM each time. Further, the “MIC KP” value in [13] was over 500 µM.
As to `CCOC(=O)[C@@H](C)NC(=O)c1cnccn1` [PC-D-Ala-Et, ethyl (pyrazine-2-carbonyl)-D-alaninate], the MIC is at least 125 µg/mL in data set [1] (pH 6); at least 125 µg/mL in data set [1] (pH 6, read-out: MIC Mtb H37Ra); at least 500 µg/mL in data set [1] (setting [14]); at least 560 µM in data set [1] (setting [15]); at least 125 µg/mL in data set [2] (setting [16]); at least 500 µg/mL in [2] (setting [17]). The MIC in data set [3] (setting [18]) was at least 125 µg/mL; in [3] (pH 6.6, read-out: MIC M. aurum) it was at least 500 µg/mL; in data set [4] it was over 500 µM; in data set [5], over 500 µM; in data set [6], over 500 µM; in data set [7], over 500 µM. The MIC in data set [8], in [9], in data set [10], in data set [11] and in data set [12] was over 500 µM each time. The “MIC KP” value in data set [13] is listed as over 500 µM.
As for `COC(=O)[C@@H](CO)NC(=O)c1cnccn1` [PC-D-Ser-Me, methyl (pyrazine-2-carbonyl)-D-serinate], the MIC in [1] (pH 6) is 250 µg/mL; in data set [1] (pH 6, read-out: MIC Mtb H37Ra), 250 µg/mL; in data set [1] (setting [14]) it was at least 500 µg/mL; in [1] (setting [15]), 1110 µM; in [2] (setting [16]), at least 500 µg/mL; in data set [2] (setting [17]), at least 500 µg/mL. The MIC in data set [3] (setting [18]) was 250 µg/mL (≈ 1110 µM); in data set [3] (pH 6.6, read-out: MIC M. aurum) it was at least 500 µg/mL; in [4], over 500 µM; in data set [5], over 500 µM; in [6] it was over 500 µM; in data set [7], over 500 µM. The MIC in data set [8], in data set [9], in [10], in [11] and in data set [12] was over 500 µM in each case. For the same compound, the “MIC KP” value in data set [13] is listed as over 500 µM.

Values taken from article PMC7181131, “N-Pyrazinoyl Substituted Amino Acids as Potential Antimycobacterial Agents—the Synthesis and Biological Evaluation of Enantiomers” (Molecules, 2020).
